Measured values as given in patent US20090048293A1 (priority 2005, published 2009).
Values joined by “and” are separate entries in the source; they are usually repeats but may differ in a detail not shown here. Equal entries are not always repeated. “Also recorded” adds a separate entry of the source. Where two headings read alike, the source gives them in different places. Where a SMILES comes first, the peptide text is derived from it. [ ]: non-standard residue; d: D form. The star is where a group is joined. Sta = CC(C)C[C@H](N)[C@@H](O)CC(=O)O; Isovaleryl = CC(C)CC(=O)*

Assays:
InhA = assay type: biochemical, Bacillus anthracis
Npr599 = assay type: biochemical, Bacillus anthracis
[1] = system: syndecan-1 ectodomain shedding from NMuMG cells; assay type: cell-based, murine
[2] = system: syndecan-1 shedding of NMuMG cells; assay type: cell-based, murine
TLR2 = assay type: cell-based

Compound: OCCS [b-mercaptoethanol, β-mercaptoethanol]
- Remaining protease activity (%) InhA (InhA): 85.8% and 105.8% and 113.4%
- Effect on InhA caseinolytic activity (in words) (InhA; 1 mM): no substantial inhibiting activity
- Remaining protease activity (%) Npr599 (Npr599): 85.4% and 133.4% and 120.7%
- Effect on Npr599 caseinolytic activity (in words) (Npr599; 1 mM): no substantial inhibiting activity

Compound: CC(=O)N[C@@H](CC(C)C)C(=O)N[C@@H](CC(C)C)C(=O)N[C@H](C=O)CCCNC(=N)N [Leupeptin, leupeptin]
- Remaining protease activity (%) InhA (InhA): 75.1% and 105.6% and 111.4%
- Remaining protease activity (%) Npr599 (Npr599): 95.4% and 106.2%

Compound: CNC(=O)[C@H](Cc1c[nH]c2ccccc12)NC(=O)[C@@H](CC(=O)NO)CC(C)C [Galardin, Galardin (Ilomastat)]
- Effect on Npr599-activated syndecan-1 shedding (in words) [1]: abrogate
- Effect on InhA caseinolytic activity (in words) (InhA): less sensitive; also recorded: not InhA activity significantly
- Remaining protease activity (%) InhA (InhA): 70.5% and 104% and 103.3%
- Effect on AnlO-induced syndecan-1 shedding (in words) [2]: reduce
- Effect on Npr599 caseinolytic activity (in words) (Npr599): inhibits Npr599 activity strongly

Compound: COc1cccc(-c2cc(=O)c3ccccc3o2)c1N [PD98059]
- Effect on protease-enhanced syndecan-1 release (in words) [1]: strongly inhibits
- Effect on protease-enhanced syndecan-1 shedding (in words) [1]: some stimulatory effect

Compound: O[C@@H](CS)[C@@H](O)CS [DTT]
- Effect on InhA caseinolytic activity (in words) (InhA): inhibits
- Effect on Npr599 caseinolytic activity (in words) (Npr599): inhibits

Compound: O=S(=O)(F)Cc1ccccc1 [PMSF, phenylmethanesulfonyl fluoride]
- Remaining protease activity (%) InhA (InhA): 111.1% and 109.8% and 94.7%
- Remaining protease activity (%) Npr599 (Npr599): 88.2% and 100.9% and 87.2%

Compound: O=C1c2ccccc2-c2n[nH]c3cccc1c23 [JNK inhibitor, JNK inhibitor II]
- Effect on protease-enhanced syndecan-1 release (in words) [1]: strongly inhibits
- Effect on protease-enhanced syndecan-1 shedding (in words) [1]: some stimulatory effect

Compound: O=C(O)CN(CCN(CC(=O)O)CC(=O)O)CC(=O)O [EDTA, ethylenediaminetetraacetic acid]
- Effect on InhA caseinolytic activity (in words) (InhA): rapidly inhibited
- Remaining protease activity (%) InhA (InhA): 28.2% and 28.7% and 33.1%
- Effect on Npr599 caseinolytic activity (in words) (Npr599): rapidly inhibited
- Remaining protease activity (%) Npr599 (Npr599): 6.5% and 9.5% and 10.5%

Compound: [Cu+2] [Cu2+]
- Effect on InhA caseinolytic activity (in words) (InhA): inhibit
- Remaining activity (%) InhA (InhA): 0 (0.0) %
- Effect on Npr599 caseinolytic activity (in words) (Npr599): inhibit
- Remaining activity (%) Npr599 (Npr599): 1 (1.0) % and 0 (0.0) %

Compound: CC(C)CC(=O)N[C@H](C(=O)N[C@H](C(=O)N[C@@H](CC(C)C)[C@@H](O)CC(=O)N[C@@H](C)C(=O)N[C@@H](CC(C)C)[C@@H](O)CC(=O)O)C(C)C)C(C)C [Pepstatin A, pepstatin A] (Isovaleryl-VV[Sta]A[Sta]-OH)
- Remaining protease activity (%) Npr599 (Npr599): 67.6% and 75.3% and 77.9%

Compound: c1cnc2c(c1)ccc1cccnc12 [1,10-phenanthroline, 1, 10-phenanthroline]
- Effect on Npr599-activated syndecan-1 shedding (in words) [1]: abrogate
- Effect on TLR2 signaling stimulated by B. anthracis culture supernatant (in words) (TLR2): abrogated
- Effect on InhA caseinolytic activity (in words) (InhA): rapidly inhibited
- Remaining protease activity (%) InhA (InhA): 0%
- Effect on InhA caseinolytic activity (in words) (InhA; 1 mM): completely abolishes
- Effect on AnlO-induced syndecan-1 shedding (in words) [2]: reduce
- Effect on LeTx-induced syndecan-1 shedding (in words) [2]: reduce
- Effect on Npr599 caseinolytic activity (in words) (Npr599): rapidly inhibited
- Effect on Npr599 caseinolytic activity (in words) (Npr599; 1 mM): completely abolishes

Compound: [Ni+2] [Ni2+]
- Remaining activity (%) InhA (InhA): 45 (3.4) % and 69 (1.3) %
- Remaining activity (%) Npr599 (Npr599): 46 (1.4) % and 77 (1.4) %

Compound: [Mn+2] [Mn2+]
- Effect on InhA caseinolytic activity (in words) (InhA): do not
- Remaining activity (%) InhA (InhA): 103 (2.5) % and 91 (5.1) %
- Effect on Npr599 caseinolytic activity (in words) (Npr599): do not
- Remaining activity (%) Npr599 (Npr599): 79 (0.2) % and 96 (4.3) %

Compound: [Ca+2] [Ca2+]
- Effect on InhA caseinolytic activity (in words) (InhA): do not
- Remaining activity (%) InhA (InhA): 91 (5.2) % and 94 (3.5) %
- Effect on Npr599 caseinolytic activity (in words) (Npr599): do not
- Remaining activity (%) Npr599 (Npr599): 86 (1.5) % and 97 (1.4) %

Compound: Cl.N[C@@H](CS)C(=O)O [L-Cysteine.HCl]
- Effect on InhA caseinolytic activity (in words) (InhA; 1 mM): no substantial inhibiting activity
- Effect on Npr599 caseinolytic activity (in words) (Npr599; 1 mM): no substantial inhibiting activity

Compound: CCCCCCCCCCCCOS(=O)(=O)[O-].[Na+] [SDS]
- Activation of Npr599 (Npr599; 3.5 μM): approximately 2.4 fold

Compound: CC(C)C[C@H](NP(=O)(O)O[C@@H]1O[C@@H](C)[C@H](O)[C@@H](O)[C@H]1O)C(=O)N[C@@H](Cc1c[nH]c2ccccc12)C(=O)O [Phosphoramidon, phosphoramidon]
- Effect on Npr599-activated syndecan-1 shedding (in words) [1]: abrogate
- Effect on InhA caseinolytic activity (in words) (InhA): less sensitive
- Remaining protease activity (%) InhA (InhA): 45.3% and 80.3% and 87.1%

Compound: [Zn+2] [Zn2+]
- Effect on InhA caseinolytic activity (in words) (InhA): inhibit
- Effect on Npr599 caseinolytic activity (in words) (Npr599): inhibit

Compound: Cc1ccc(C(=O)Nc2ccc(S(=O)(=O)O)c3cc(S(=O)(=O)O)cc(S(=O)(=O)O)c23)cc1NC(=O)c1cccc(NC(=O)Nc2cccc(C(=O)Nc3cc(C(=O)Nc4ccc(S(=O)(=O)O)c5cc(S(=O)(=O)O)cc(S(=O)(=O)O)c45)ccc3C)c2)c1 [suramin]
- Effect on syndecan-1 shedding induced by proteases (in words) [1]: effectively inhibits
- Effect on syndecan shedding (in words) ([1]; 20 μM): stimulates
- Effect on AnlO-induced syndecan-1 shedding (in words) [2]: reduce
- Effect on LeTx-induced syndecan-1 shedding (in words) [2]: reduce

Compound: CC(C)C[C@H](NC(=O)[C@H]1O[C@@H]1C(=O)O)C(=O)NCCCCN=C(N)N [E-64]
- Remaining protease activity (%) InhA (InhA): 59.1% and 78.4% and 83.5%
- Remaining protease activity (%) Npr599 (Npr599): 74.1% and 76.1% and 79.5%

Compound: [Mg+2] [Mg2+]
- Effect on InhA caseinolytic activity (in words) (InhA): do not
- Remaining activity (%) InhA (InhA): 76 (6.1) % and 97 (1.7) %
- Effect on Npr599 caseinolytic activity (in words) (Npr599): do not
- Remaining activity (%) Npr599 (Npr599): 83 (2.8) % and 97 (1.4) %

Compound: [Fe+2] [Fe2+]
- Effect on InhA caseinolytic activity (in words) (InhA): inhibit
- Effect on Npr599 caseinolytic activity (in words) (Npr599): inhibit
